What all share (format): cell-based
Assay [1] concerns the target T1, human EGFR exon 20 insertion ASV (V769_D770insASV) (Homo sapiens, UniProt P00533, INS769ASV).
T1 construct: expressed in transfected cells; host or cells: Ba/F3 (murine pro-B) cells transduced with lentivirus from pLVX-IRES puro
The experiment in a line: Ba/F3-EGFR-Exon20-ASV cell anti-proliferative assay (CellTiter 96 MTS, 72 h). To be noted: Ba/F3-EGFR-Exon20-ASV cells. In short, it runs like this:
(§1)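 Viable-cell readout used absorbance at 490 nm of MTS-derived formazan, 2 h after reagent addition, following 72 h compound treatment at 37 °C, 5% CO2. Cells: puromycin-selected, IL-3-depleted Ba/F3 expressing EGFR exon 20 ASV or NPG; dosing 4-fold series from 10,000 nM.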

Assay [2] deals with T2, human EGFR exon 20 insertion NPG (H773_V774insNPG) (Homo sapiens, UniProt P00533, INS772GNP).
T2 construct: expressed in transfected cells; host or cells: Ba/F3 (murine pro-B) cells transduced with lentivirus from pLVX-IRES puro
T2 sequence (P00533 with tags, fused parts or gaps INS772GNP): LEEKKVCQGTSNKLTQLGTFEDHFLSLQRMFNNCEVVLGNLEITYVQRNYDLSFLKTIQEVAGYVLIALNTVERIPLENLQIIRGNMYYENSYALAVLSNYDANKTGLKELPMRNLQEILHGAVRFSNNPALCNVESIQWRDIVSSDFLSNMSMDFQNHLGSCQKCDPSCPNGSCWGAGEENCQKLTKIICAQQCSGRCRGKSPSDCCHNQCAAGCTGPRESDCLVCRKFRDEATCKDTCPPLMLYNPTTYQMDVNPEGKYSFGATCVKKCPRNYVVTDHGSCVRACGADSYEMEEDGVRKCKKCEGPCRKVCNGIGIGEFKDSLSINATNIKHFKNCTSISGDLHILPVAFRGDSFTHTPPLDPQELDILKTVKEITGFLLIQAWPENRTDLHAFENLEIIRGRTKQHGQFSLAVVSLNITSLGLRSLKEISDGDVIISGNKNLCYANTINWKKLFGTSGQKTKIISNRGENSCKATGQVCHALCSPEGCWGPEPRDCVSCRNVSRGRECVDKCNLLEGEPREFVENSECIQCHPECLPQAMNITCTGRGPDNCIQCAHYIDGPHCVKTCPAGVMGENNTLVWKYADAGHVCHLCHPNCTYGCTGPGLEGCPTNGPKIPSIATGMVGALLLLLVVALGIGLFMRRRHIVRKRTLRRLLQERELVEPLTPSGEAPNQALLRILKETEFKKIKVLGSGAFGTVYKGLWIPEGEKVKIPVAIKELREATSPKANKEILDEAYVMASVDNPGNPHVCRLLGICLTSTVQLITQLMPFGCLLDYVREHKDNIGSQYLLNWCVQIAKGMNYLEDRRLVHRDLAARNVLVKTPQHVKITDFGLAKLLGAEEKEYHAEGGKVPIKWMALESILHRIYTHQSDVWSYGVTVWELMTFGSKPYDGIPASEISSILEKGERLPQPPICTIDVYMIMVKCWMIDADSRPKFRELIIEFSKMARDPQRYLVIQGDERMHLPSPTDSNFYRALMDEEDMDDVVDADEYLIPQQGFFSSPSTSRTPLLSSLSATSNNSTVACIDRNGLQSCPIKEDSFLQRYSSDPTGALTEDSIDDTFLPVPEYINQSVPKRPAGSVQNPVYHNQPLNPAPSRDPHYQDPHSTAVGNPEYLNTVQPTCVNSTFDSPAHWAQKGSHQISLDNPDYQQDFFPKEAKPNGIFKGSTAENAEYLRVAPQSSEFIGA
In words: Ba/F3-EGFR-Exon20-NPG cell anti-proliferative assay (CellTiter 96 MTS, 72 h). As to conditions: Ba/F3-EGFR-Exon20-NPG cells. Put shortly: as §1

Assay [3] has as its target T3, human EGFR E746-A750 deletion and T790M Mutation (Homo sapiens, UniProt P00533, DEL746-750/T790M).
T3 construct: expressed in transfected cells; host or cells: Ba/F3 (murine pro-B) cells transduced with lentivirus from pLVX-IRES puro
In words: Ba/F3-EGFR-Del/T790M cell anti-proliferative assay (CellTiter 96 MTS, 72 h). To be noted: Ba/F3-EGFR-Del/T790M cells. In short, it runs like this: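 Compound exposure: 72 h, 37 °C, 4-fold series topping at 10,000 nM. Target cells are Ba/F3 transduced with EGFR exon 19 deletion plus T790M, selected by puromycin and IL-3 withdrawal. Viable cell number inferred from MTS metabolic conversion, A490 read 2 h after reagent addition.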

The target of assay [4] is T4, human EGFR L858R and T790M double mutation (Homo sapiens, UniProt P00533, L858R/T790M).
T4 construct: expressed in transfected cells; host or cells: Ba/F3 (murine pro-B) cells transduced with lentivirus from pLVX-IRES puro
The experiment in a line: Ba/F3-EGFR L858R/T790M cell anti-proliferative assay (CellTiter 96 MTS, 72 h). To be noted: Ba/F3-EGFR L858R/T790M cells. Here is the method: An expression vector, pLVX-IRES puro (Clontech) coding for human EGFR L858R and T790M double mutation, was transfected into HEK293 cells by the Trans-Lentiviral ORF Packaging System (Thermo Scientific), to produce virus encoding EGFR L858R and T790M double mutations. Ba/F3 (DSMZ) cells maintained in RPMI 1640 medium supplemented with 10% fetal bovine serum, 200 μM L-glutamine/l 200 μg/mL penicillin/200 μg/mL streptomycin (Life Technology) and 10 ng/mL IL-3 (R&D system), were infected by EGFR L858R and T790M double mutation virus and subsequently selected by puromycin (Life Technology) selection and IL-3 depletion. […] The anti-proliferative activity of compounds was determined as follows: BaF3-EGFR L858R/T790M cells seeded in 96 well plates (2500 cells/well) were treated with test compound (dissolved in DMSO) at a series of concentrations (4-fold dilution, top concentration: 10,000 nM). The plates were incubated for 72 h in a 37° C. incubator with 5% CO2, and the number of viable cells in each well were measured indirectly by CellTiter 96® Aqueous One Solution Cell Proliferation Assay (Promega; this assay is a colorimetric method for determining the number of viable cells through measurement of their metabolic activity by detection of enzymatic conversion of tetrazolium salts into blue formazan derivatives). Reagent (20 μL) was added into each well, and the plates were returned to the incubator for 2 h. The absorbance in each well was then measured at 490 nm using an Envision plate reader (Perkin Elmer).

Assay [5] addresses T5, Her2 exon 20 YVMA insertion (A775_G776ins YVMA) (Homo sapiens, UniProt P04626, INS775YVMA).
T5 construct: expressed in transfected cells; host or cells: Ba/F3 (murine pro-B) cells transduced with lentivirus from pLVX-IRES puro
In words: Ba/F3-Her2 Exon20 YVMA cell anti-proliferative assay (CellTiter 96 MTS, 72 h). As to conditions: Ba/F3-Her2 Exon20 YVMA cells. In short, it runs like this:
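Anti-proliferation: compound series (top 10,000 nM, 4-fold steps) was applied to Ba/F3-Her2 Exon20 YVMA cells grown without IL-3 for 72 h. Viability was read colorimetrically (CellTiter 96 Aqueous One, A490, 2 h reagent incubation).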

The term pIC50 denotes −log10 of the IC50, conventionally taken in molar units.

pIC50: −log10 of the molar value.

T3 sequence (P00533 with tags, fused parts or gaps DEL746-750/T790M): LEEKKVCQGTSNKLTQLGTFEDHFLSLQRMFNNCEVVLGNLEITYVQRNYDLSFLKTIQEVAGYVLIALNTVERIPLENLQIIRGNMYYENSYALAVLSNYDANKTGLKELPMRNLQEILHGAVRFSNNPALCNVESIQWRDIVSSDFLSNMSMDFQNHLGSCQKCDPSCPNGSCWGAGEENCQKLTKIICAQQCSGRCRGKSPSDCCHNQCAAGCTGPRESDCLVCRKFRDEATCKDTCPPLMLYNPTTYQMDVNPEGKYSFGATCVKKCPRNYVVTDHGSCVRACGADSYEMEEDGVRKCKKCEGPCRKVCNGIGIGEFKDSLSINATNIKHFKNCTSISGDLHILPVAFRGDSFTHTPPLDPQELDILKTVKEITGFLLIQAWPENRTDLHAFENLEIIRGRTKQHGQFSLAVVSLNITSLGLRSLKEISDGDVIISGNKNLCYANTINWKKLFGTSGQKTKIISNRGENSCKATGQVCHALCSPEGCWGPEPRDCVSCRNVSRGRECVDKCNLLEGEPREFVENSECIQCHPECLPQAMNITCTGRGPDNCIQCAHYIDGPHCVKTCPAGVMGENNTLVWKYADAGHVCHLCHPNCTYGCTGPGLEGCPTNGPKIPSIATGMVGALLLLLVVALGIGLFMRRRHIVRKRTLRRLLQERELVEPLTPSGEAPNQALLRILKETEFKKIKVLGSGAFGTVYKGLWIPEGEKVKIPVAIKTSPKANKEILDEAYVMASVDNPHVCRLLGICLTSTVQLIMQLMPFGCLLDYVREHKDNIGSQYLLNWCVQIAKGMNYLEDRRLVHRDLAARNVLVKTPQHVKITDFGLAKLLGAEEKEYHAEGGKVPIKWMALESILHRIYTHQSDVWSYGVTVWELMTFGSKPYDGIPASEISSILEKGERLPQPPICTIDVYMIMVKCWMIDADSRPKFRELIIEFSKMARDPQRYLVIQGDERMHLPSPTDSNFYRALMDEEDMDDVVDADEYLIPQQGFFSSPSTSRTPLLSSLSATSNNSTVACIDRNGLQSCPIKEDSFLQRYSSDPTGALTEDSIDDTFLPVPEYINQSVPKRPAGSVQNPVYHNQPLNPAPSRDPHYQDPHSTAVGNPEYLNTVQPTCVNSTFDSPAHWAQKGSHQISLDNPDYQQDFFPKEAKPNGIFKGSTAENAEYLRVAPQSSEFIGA
T1 sequence (P00533 with tags, fused parts or gaps INS769ASV): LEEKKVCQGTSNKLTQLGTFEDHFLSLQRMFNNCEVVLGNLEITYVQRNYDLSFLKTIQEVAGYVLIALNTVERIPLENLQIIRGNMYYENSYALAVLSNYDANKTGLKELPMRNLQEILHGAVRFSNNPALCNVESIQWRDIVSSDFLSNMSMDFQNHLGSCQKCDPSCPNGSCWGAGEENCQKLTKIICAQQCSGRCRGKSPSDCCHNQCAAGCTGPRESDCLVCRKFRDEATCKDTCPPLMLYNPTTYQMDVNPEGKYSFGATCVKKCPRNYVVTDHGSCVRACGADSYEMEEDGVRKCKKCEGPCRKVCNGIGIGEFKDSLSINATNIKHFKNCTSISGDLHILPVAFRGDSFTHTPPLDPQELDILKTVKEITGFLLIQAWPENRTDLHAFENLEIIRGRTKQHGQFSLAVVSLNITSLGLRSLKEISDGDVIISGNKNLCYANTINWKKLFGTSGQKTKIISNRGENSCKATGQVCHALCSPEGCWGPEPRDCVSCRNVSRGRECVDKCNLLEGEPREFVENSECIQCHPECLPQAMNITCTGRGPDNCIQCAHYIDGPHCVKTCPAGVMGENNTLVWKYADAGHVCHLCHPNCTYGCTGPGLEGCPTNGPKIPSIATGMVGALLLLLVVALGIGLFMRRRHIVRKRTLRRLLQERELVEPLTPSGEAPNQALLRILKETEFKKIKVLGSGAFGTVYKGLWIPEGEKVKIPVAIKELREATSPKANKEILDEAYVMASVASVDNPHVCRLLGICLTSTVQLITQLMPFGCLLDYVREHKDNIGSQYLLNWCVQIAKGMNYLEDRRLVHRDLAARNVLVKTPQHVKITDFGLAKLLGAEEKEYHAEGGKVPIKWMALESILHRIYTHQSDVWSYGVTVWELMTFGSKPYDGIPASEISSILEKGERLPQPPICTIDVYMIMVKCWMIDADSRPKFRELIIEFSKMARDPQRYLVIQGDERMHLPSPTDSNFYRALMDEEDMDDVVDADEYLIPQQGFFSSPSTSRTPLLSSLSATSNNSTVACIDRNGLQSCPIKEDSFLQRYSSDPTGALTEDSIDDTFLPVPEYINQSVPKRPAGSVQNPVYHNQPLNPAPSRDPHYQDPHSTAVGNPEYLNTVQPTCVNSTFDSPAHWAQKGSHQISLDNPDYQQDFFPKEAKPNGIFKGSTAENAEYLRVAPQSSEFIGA
T5 sequence (P04626 with tags, fused parts or gaps INS775YVMA): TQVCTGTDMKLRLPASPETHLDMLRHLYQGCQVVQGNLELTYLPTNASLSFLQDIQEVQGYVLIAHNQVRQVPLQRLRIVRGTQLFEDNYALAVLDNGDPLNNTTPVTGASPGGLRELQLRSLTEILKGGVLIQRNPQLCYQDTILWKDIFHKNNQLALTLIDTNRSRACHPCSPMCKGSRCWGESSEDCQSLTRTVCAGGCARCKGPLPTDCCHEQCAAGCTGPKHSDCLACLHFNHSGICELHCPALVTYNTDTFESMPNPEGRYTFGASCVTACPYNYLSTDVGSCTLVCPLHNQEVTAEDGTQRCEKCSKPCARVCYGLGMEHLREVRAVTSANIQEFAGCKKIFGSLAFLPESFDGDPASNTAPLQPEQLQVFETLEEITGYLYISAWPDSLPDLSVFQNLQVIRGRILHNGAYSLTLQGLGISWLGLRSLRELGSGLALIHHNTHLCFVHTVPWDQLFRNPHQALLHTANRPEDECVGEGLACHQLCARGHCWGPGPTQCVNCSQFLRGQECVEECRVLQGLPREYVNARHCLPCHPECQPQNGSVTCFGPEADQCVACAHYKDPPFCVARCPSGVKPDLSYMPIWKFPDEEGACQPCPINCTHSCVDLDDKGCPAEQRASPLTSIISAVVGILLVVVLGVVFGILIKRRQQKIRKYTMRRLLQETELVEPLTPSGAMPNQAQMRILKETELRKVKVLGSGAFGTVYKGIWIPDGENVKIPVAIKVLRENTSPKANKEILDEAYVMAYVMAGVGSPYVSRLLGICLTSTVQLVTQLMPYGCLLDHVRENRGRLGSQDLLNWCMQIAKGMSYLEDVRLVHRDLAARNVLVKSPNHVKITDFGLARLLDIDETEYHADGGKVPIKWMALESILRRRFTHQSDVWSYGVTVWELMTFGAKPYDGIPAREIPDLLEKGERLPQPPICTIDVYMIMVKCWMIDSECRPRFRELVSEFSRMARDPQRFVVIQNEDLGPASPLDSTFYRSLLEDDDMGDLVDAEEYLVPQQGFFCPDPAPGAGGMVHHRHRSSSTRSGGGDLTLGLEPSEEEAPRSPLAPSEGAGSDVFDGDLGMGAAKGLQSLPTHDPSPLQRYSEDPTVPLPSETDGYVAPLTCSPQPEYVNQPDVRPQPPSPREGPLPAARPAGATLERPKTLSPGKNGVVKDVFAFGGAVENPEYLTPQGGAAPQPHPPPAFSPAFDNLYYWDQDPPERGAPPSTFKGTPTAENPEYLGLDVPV

Take `C=CC(=O)Nc1cc(Nc2ncc(C(N)=O)c(-c3cn4c5c(cccc35)CCC4)n2)c(OC)cc1N(C)CCN(C)C` [Example 46, 2-((5-acrylamido-4-((2-(dimethylamino)ethyl)(methyl)amino)-2-methoxyphenyl)amino)-4-(5,6-dihydro-4H-pyrrolo[3,2,1-ij]quinolin-1-yl)pyrimidin-5-carboxamide]: the pIC50 is over 7.00 in assay [1], over 7.00 in assay [2] and 6.30 to 7.00 in assay [5]. The “EGFR exon 19 deletion and exon 20 T790M mutation IC50” value in assay [3] was “A (IC50 value for the indicated mutant below about 100 nM)”. In assay [4], the “EGFR exon 21 L858R and exon 20 T790M mutation IC50” value is on record as “A (IC50 value for the indicated mutant below about 100 nM)”.

`C=CC(=O)Nc1cc(Nc2ncc(C(=O)NCCOC)c(-c3cn4c5c(cccc35)CCC4)n2)c(OC)cc1N(C)CCN(C)C` [Example 47, 2-((5-acrylamido-4-((2-(dimethylamino)ethyl)(methyl)amino)-2-methoxyphenyl)amino)-4-(5,6-dihydro-4H-pyrrolo[3,2,1-ij]quinolin--yl)-N-(2-methoxyethyl)pyrimidine-5-carboxamide]: the results for the negative-log IC50 (pIC50) in assay [1], in assay [2] and in assay [5] were 6.30 to 7.00, over 7.00 and 6.00 to 6.30, respectively. For the same compound, the “EGFR exon 19 deletion and exon 20 T790M mutation IC50” value in assay [3] is on record as “B (IC50 value for the indicated mutant between about 100 to about 500 nM)”. In addition, the “EGFR exon 21 L858R and exon 20 T790M mutation IC50” value in assay [4] is “C (IC50 value for the indicated mutant between greater than about 500 to about 1 μM)”.

In the case of `C=CC(=O)Nc1cc(Nc2ncc(C(=O)NCCO)c(-c3cn4c5c(cccc35)CCC4)n2)c(OC)cc1N(C)CCN(C)C` [Example 48], the pIC50 in assay [1] is 6.00 to 6.30; in assay [2], over 7.00; in assay [5] it was under 6.00. Besides, the “EGFR exon 19 deletion and exon 20 T790M mutation IC50” value in assay [3] is reported as “B (IC50 value for the indicated mutant between about 100 to about 500 nM)”. Moreover, in assay [4], the “EGFR exon 21 L858R and exon 20 T790M mutation IC50” value was “C (IC50 value for the indicated mutant between greater than about 500 to about 1 μM)”.

In the case of `C=CC(=O)Nc1cc(Nc2ncc(Cl)c(-c3cn4c5c(cccc35)OCC4)n2)c(OC)cc1N(C)CCN(C)C` [Example 76, N-(5-((5-chloro-4-(2,3-dihydro-[1,4]oxazino[2,3,4-hi]indol-6-yl)pyrimidin-2-yl)amino)-2-((2-(dimethylamino)ethyl)(methyl)amino)-4-methoxyphenyl)acrylamide], the pIC50 in assay [1] is over 7.00; in assay [2], over 7.00; in assay [5] it was 6.30 to 7.00. Further, in assay [3], the “EGFR exon 19 deletion and exon 20 T790M mutation IC50” value is reported as “A (IC50 value for the indicated mutant below about 100 nM)”. Further, the “EGFR exon 21 L858R and exon 20 T790M mutation IC50” value in assay [4] is listed as “A (IC50 value for the indicated mutant below about 100 nM)”.

For the compound `C=CC(=O)Nc1cc(Nc2nccc(-c3cn4c5c(cccc35)CCC4)n2)c(OC)cc1N(C)CCNC` [Example 83, N-(5-((4-(5,6-dihydro-4H-pyrrolo[3,2,1-ij]quinolin-1-yl)pyrimidin-2-yl)amino)-4-methoxy-2-(methyl(2-(methylamino)ethyl)amino)phenyl)acrylamide], the negative-log IC50 (pIC50) was 6.30 to 7.00 in assay [1], over 7.00 in assay [2] and 6.30 to 7.00 in assay [5]. Also, the “EGFR exon 19 deletion and exon 20 T790M mutation IC50” value in assay [3] was “A (IC50 value for the indicated mutant below about 100 nM)”. In addition, the “EGFR exon 21 L858R and exon 20 T790M mutation IC50” value in assay [4] was “A (IC50 value for the indicated mutant below about 100 nM)”.

Turning to `C=CC(=O)Nc1cc(Nc2ncc(C#N)c(-c3cn4c5c(cccc35)CCC4)n2)c(OC)cc1N(C)CCNC` [Example 84, N-(5-((5-cyano-4-(5,6-dihydro-4H-pyrrolo[3,2,1-ij]quinolin-1-yl)pyrimidin-2-yl)amino)-4-methoxy-2-(methyl(2-(methylamino)ethyl)amino)phenyl)acrylamide], the results for the pIC50 in assay [1], in assay [2] and in assay [5] were over 7.00, under 6.00 and over 7.00, respectively. Also, in assay [3], the “EGFR exon 19 deletion and exon 20 T790M mutation IC50” value is listed as “A (IC50 value for the indicated mutant below about 100 nM)”. Moreover, the “EGFR exon 21 L858R and exon 20 T790M mutation IC50” value in assay [4] is given as “A (IC50 value for the indicated mutant below about 100 nM)”.

On to `C=CC(=O)Nc1cc(Nc2ncc(CCP(C)(C)=O)c(-c3cn4c5c(cccc35)CCC4)n2)c(OC)cc1N(C)CCN(C)C` [Example 96], for which the pIC50 in assay [1], in assay [2] and in assay [5] was under 6.00 each time. Besides, the “EGFR exon 19 deletion and exon 20 T790M mutation IC50” value in assay [3] is on record as “D (IC50 value for the indicated mutant greater than about 1 μM)”. In assay [4], the “EGFR exon 21 L858R and exon 20 T790M mutation IC50” value was “D (IC50 value for the indicated mutant greater than about 1 μM)”.

For `C=CC(=O)Nc1cc(Nc2ncc(-c3ncc[nH]3)c(-c3cn4c5c(cccc35)CCC4)n2)c(OC)cc1N(C)CCN(C)C` [Example 97], the pIC50 is 6.30 to 7.00 in assay [1], 6.30 to 7.00 in assay [2] and under 6.00 in assay [5]. Moreover, the “EGFR exon 19 deletion and exon 20 T790M mutation IC50” value in assay [3] was “B (IC50 value for the indicated mutant between about 100 to about 500 nM)”. The “EGFR exon 21 L858R and exon 20 T790M mutation IC50” value in assay [4] was “C (IC50 value for the indicated mutant between greater than about 500 to about 1 μM)”.

As for `C=CC(=O)Nc1cc(Nc2nccc(-c3cn4c5c(cccc35)OCC4)n2)c(OC)cc1N(C)CCNC` [Example 105, N-(5-((4-(2,3-dihydro-[1,4]oxazino[2,3,4-hi]indol-6-yl)pyrimidin-2-yl)amino)-4-methoxy-2-(methyl(2-(methylamino)ethyl)amino)phenyl)acrylamide], the pIC50 in assay [1] is 6.30 to 7.00; in assay [2], 6.30 to 7.00; in assay [5], 6.00 to 6.30. Moreover, in assay [3], the “EGFR exon 19 deletion and exon 20 T790M mutation IC50” value was “A (IC50 value for the indicated mutant below about 100 nM)”. In addition, the “EGFR exon 21 L858R and exon 20 T790M mutation IC50” value in assay [4] is “C (IC50 value for the indicated mutant between greater than about 500 to about 1 μM)”.

`C=CC(=O)Nc1cc(Nc2ncc(-c3nnc(C)o3)c(-c3cn4c5c(cccc35)CCC4)n2)c(OC)cc1N(C)CCN(C)C` [Example 107]: the pIC50 in assay [1], in assay [2] and in assay [5] was over 7.00 each time. Moreover, in assay [3], the “EGFR exon 19 deletion and exon 20 T790M mutation IC50” value is listed as “A (IC50 value for the indicated mutant below about 100 nM)”. Also, in assay [4], the “EGFR exon 21 L858R and exon 20 T790M mutation IC50” value was “A (IC50 value for the indicated mutant below about 100 nM)”.

The values above are taken from patent US20170166598A1, “HETEROARYL COMPOUNDS FOR KINASE INHIBITION” (ARIAD PHARMACEUTICALS, INC., priority 2014, published 2017).
